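Results reflect a 48-hour exposure of cells in 96-well plates to compound at five concentrations. At the GI50, growth is halved. TGI: concentration producing complete growth inhibition.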
Columns and labels:
Assay in all cases: NCI anticancer screen, dose series, 48 h
MCF7 breast = tested on: MCF7 breast
HT29 colon = tested on: HT29 colon
SF-295 CNS = tested on: SF-295 CNS
COLO 205 colon = tested on: COLO 205 colon
A498 renal = tested on: A498 renal
OVCAR-8 ovarian = tested on: OVCAR-8 ovarian
LOX IMVI melanoma = tested on: LOX IMVI melanoma
IGROV1 ovarian = tested on: IGROV1 ovarian
K-562 leukemia = tested on: K-562 leukemia
786-0 renal = tested on: 786-0 renal

Row | Compound | GI50 (MCF7 breast) | TGI (MCF7 breast) | GI50 (HT29 colon) | TGI (HT29 colon) | GI50 (SF-295 CNS) | TGI (SF-295 CNS) | GI50 (COLO 205 colon) | TGI (COLO 205 colon) | GI50 (A498 renal) | TGI (A498 renal) | GI50 (OVCAR-8 ovarian) | TGI (OVCAR-8 ovarian) | GI50 (LOX IMVI melanoma) | TGI (LOX IMVI melanoma) | GI50 (IGROV1 ovarian) | TGI (IGROV1 ovarian) | GI50 (K-562 leukemia) | TGI (K-562 leukemia) | GI50 (786-0 renal) | TGI (786-0 renal)
1 | O=C(NCc1ccco1)c1cccc(NC2=C(Cl)C(=O)N(Cc3ccccc3)C2=O)c1 | 11500 nM | > 100 µM | 18400 nM | > 100 µM | 1810 nM | 9.4 µM | 16200 nM | 49.9 µM | 17200 nM | 50.8 µM | 8.57 µM | > 100 µM | 3720 nM | > 100 µM | 2.44 µM | 11 µM | 5240 nM | > 100 µM | 3.94 µM | 16.3 µM
2 | COc1cc2c(=O)n(CCN(C)C)c3c4cc5c(cc4ccc3c2cc1OC)OCO5 | 102 nM | 6.16 µM | 178 nM | 5.43 µM | 155 nM | 3.15 µM | 169 nM | 0.922 µM | 41.7 nM | 0.603 µM | 0.478 µM | > 50 µM | 100 nM | 0.32 µM | 0.257 µM | 2.55 µM | 186 nM | > 11.3 µM | 0.166 µM | 0.672 µM
3 | Oc1[nH]c2ccccc2c1N=Nc1c(F)c(F)c(F)c(F)c1F |  | > 100 µM |  | > 100 µM |  | > 100 µM |  | 28.3 µM |  | > 100 µM |  | > 100 µM |  | > 66.7 µM |  | > 100 µM |  | 33.5 µM |  | 50.5 µM
4 | COc1cc(/C=C/c2cc(/C=C/c3ccc(O)c(OC)c3)n(C(=O)Nc3ccc(Cl)cc3)n2)ccc1O | 486 nM | 3.39 µM | 2580 nM | 6.26 µM | 1500 nM | 7.86 µM | 1950 nM | 3.43 µM | 1840 nM | 5.13 µM | 0.641 µM | 3.31 µM | 448 nM | 2.26 µM | 0.661 µM | 4.66 µM | 306 nM | 1.34 µM | 0.515 µM | 1.85 µM
5 | Cc1cc(Nc2cc(N3CCN(C)CC3)nc(Sc3ccc(NC(=O)C4CC4)cc3)n2)n[nH]1 | 492 nM | > 10 µM | 1180 nM | > 10 µM | 1280 nM | > 10 µM | 45.6 nM | 7.32 µM | 1740 nM | 8.38 µM | 7.54 µM | > 10 µM | 424 nM | 3.87 µM | 4.82 µM | > 10 µM | 232 nM | > 10 µM | > 10 µM | > 10 µM
6 | N#CN1CC[C@H](C(=O)Nc2cc3cc(C(N)=O)ccc3cn2)C1 | 21.4 nM | > 100 µM | 144 nM | 1.16 µM | 392 nM | > 47.7 µM | 85.5 nM | 0.268 µM | 76.5 nM | 0.31 µM | 0.0993 µM | > 46.3 µM | 117 nM | > 54.9 µM | 0.387 µM | > 25.3 µM | 131 nM | > 54.2 µM | 0.222 µM | 
7 | Cn1c(=S)c2[nH]c(SCCN3C(=O)c4ccccc4C3=O)nc2n(C)c1=O |  | > 100 µM |  | > 100 µM |  | > 100 µM |  | > 100 µM |  | > 100 µM |  | > 100 µM |  | > 100 µM |  | > 100 µM |  | > 100 µM |  | > 100 µM
8 | Cc1ccc(-c2nc(-c3cn(C)c4ncccc34)cs2)cc1 | 2390 nM | 15.9 µM | 2320 nM | 8.51 µM | 2300 nM | 11.1 µM | 2820 nM | 10.5 µM | 277 nM | 8.24 µM | 8.99 µM | 38.9 µM | 5060 nM | 18.1 µM | 7.26 µM | 32.2 µM | 1910 nM | > 34.5 µM | 6.09 µM | 19.8 µM
9 | Cc1c(C(N)=O)sc2c1c(=O)n(Cc1ccccc1)c1nnc(-c3ccc(Br)cc3)n21 | 3400 nM | 14.6 µM | 2320 nM | 13.4 µM | 1010 nM | 11.8 µM | 3120 nM | 15 µM | 2300 nM | 12.7 µM | 2.21 µM | 15 µM | 1270 nM | 10.2 µM | 2.15 µM | 19.2 µM | 3090 nM | 20.4 µM | 2.09 µM | 5.73 µM
10 | O=C(Nc1ccccc1O)c1ccc(NS(=O)(=O)c2cccc3cccnc23)cc1 | 941 nM | > 18.2 µM | 1180 nM | > 16 µM | 1090 nM | 4.77 µM | 1060 nM | 4.01 µM | 208 nM | 1.62 µM | 0.665 µM | 7.25 µM | 1230 nM | 4.8 µM | 3.06 µM | 9.95 µM | 971 nM | > 25 µM | 2.4 µM | 6.4 µM
11 | CN(C)c1ccc(/C=c2/c3ccccc3n3c2c2cc(F)ccc2[n+]3C)cc1 | 6570 nM | 32.1 µM | 3490 nM | 40.8 µM | 6310 nM | 19.6 µM | 2150 nM | 7.37 µM | 5240 nM | 17.4 µM | 3.83 µM | 16.4 µM | 11700 nM | > 100 µM | 5.98 µM | > 36.7 µM | 1480 nM | > 47.5 µM | 4.24 µM | 21 µM
12 | CCS(=O)(=O)c1ccc(OC)c(Nc2ncc(-c3ccccc3Cl)o2)c1 | 8270 nM | > 25 µM | 8010 nM | > 20.5 µM | 9430 nM | > 25 µM | 6670 nM | 15.4 µM | 3170 nM | 12.1 µM | 9.9 µM | > 25 µM | 9150 nM | > 25 µM | 14.4 µM | > 25 µM | 11000 nM | > 25 µM | > 17.4 µM | > 25 µM
13 | Cc1cccc(NC(=O)/C=C/c2ccc([N+](=O)[O-])cc2)c1 |  | > 43.9 µM |  | > 70.3 µM |  | > 58 µM |  | > 56.3 µM |  | > 100 µM |  | > 53.7 µM |  | > 53 µM |  | > 53.7 µM |  | > 100 µM |  | > 51.2 µM
14 | Cc1cnc(Nc2ccc(N3CCN(C)CC3)cc2)nc1Nc1ccc(Cl)c(NS(=O)(=O)C(C)(C)C)c1 | 79.5 nM | 2.49 µM | 96.1 nM | 4.19 µM | 524 nM | 2.95 µM | 94 nM | 0.543 µM | 178 nM | 0.881 µM | 0.652 µM | 8.1 µM | 169 nM | 0.866 µM | 0.154 µM | 2.66 µM | 245 nM | 7.74 µM | 0.208 µM | 1.82 µM
15 | COc1ccc(N(/C=C/C(=O)C(F)(F)F)CC(=O)c2ccc(Cl)cc2)cc1 | 18400 nM | > 100 µM | 25000 nM | 95.6 µM | 13600 nM | 31.7 µM | 18600 nM | 40.7 µM | 13900 nM | 28.7 µM | 13.5 µM | 40 µM | 14300 nM | 28.8 µM | 6.14 µM | 21.7 µM | 13600 nM | 43.1 µM | 20.7 µM | 57.8 µM
16 | NNC(=O)c1ccc(OCc2nc3ccccc3[nH]2)cc1 |  | > 100 µM |  | > 100 µM |  | > 100 µM |  | > 100 µM |  | > 100 µM |  | > 100 µM |  | > 100 µM |  | > 100 µM |  | > 100 µM |  | > 100 µM
17 | COc1cc(-n2ccnc2)cc(OC)c1OC | 41700 nM | > 100 µM | > 100000 nM | > 100 µM | 20900 nM | 63.1 µM | > 100000 nM | > 100 µM | 35800 nM | > 100 µM | 56.8 µM | > 100 µM | 60300 nM | > 100 µM | 11.1 µM | 51.6 µM | 68100 nM | > 100 µM | 39.1 µM | > 100 µM
18 | C=C(C)C(=O)O[C@@H]1C/C(C)=C\[C@H](OC(C)=O)C[C@](C)(O)/C=C2/OC(=O)C(COC(C)=O)=C21 |  | > 36.5 µM |  | 0.687 µM |  | 23.9 µM |  | 2.37 µM |  | > 20.8 µM |  | 2.75 µM |  | 0.373 µM |  | 3 µM |  | 0.879 µM |  | 6.03 µM
19 | COc1cc(C2C3=C(COC3=O)N(CCO)c3cc4c(cc32)OCO4)cc(OC)c1O (centres undefined) | 1190 nM | > 50 µM | 1380 nM | 5.32 µM | 1470 nM | > 14.6 µM | 1480 nM | 4.07 µM | 1160 nM | 3.92 µM | 3.17 µM | > 50 µM | 2500 nM | > 50 µM | 1.47 µM | 6.08 µM | 1490 nM | > 50 µM | 2.02 µM | > 50 µM
20 | COc1ccc(/C=C\c2cc(OC)c(OC)c(OC)c2)cc1OCC(=O)Nc1ccc2nc(C)sc2c1 | 748 nM | 12.9 µM | 3310 nM | > 100 µM | 2450 nM | 6.85 µM | 4400 nM | 16.2 µM | 4180 nM | > 100 µM | 2.12 µM | 5.41 µM | 2640 nM | 9 µM | 3.72 µM | 15.7 µM | 2190 nM | > 100 µM | 7.55 µM | > 100 µM
21 | COc1ccc(C(CC(=O)c2ccccc2)C(C(=O)c2ccccc2)C(c2ccc(OC)cc2)C2C(=O)NC(=S)NC2=O)cc1 (centres undefined) | 16100 nM | > 100 µM | 21300 nM | > 100 µM | 11400 nM | 42.7 µM | 8860 nM | > 100 µM | 3190 nM | 23.2 µM | 13.5 µM | 45.6 µM | 8180 nM | 20.6 µM | 8.67 µM | 48.5 µM | 24800 nM | > 100 µM | 21.7 µM | > 100 µM
22 | c1ccc([As]=[As]c2ccccc2)cc1 (centres undefined) | 251 nM | 1.07 µM | 1740 nM | 3.61 µM | 2270 nM | 5.75 µM | 1130 nM | 2.8 µM | 668 nM | 2.34 µM | 1.44 µM | 3.69 µM | 117 nM | 0.653 µM | 0.666 µM | 2.76 µM | 311 nM | 2.1 µM | 1.28 µM | 3.19 µM
